Values after ≈ are worked out from the molar mass of the structure shown.
Key:
[Clostridium] innocuum = Antibacterial activity against Clostridium innocuum by CLSI M11-A6 agar dilution method; type: functional
Clostridium perfringens = experiment: Antibacterial activity against Clostridium perfringens by CLSI M11-A6 agar dilution method; type: functional
Thomasclavelia ramosa = experiment: Antibacterial activity against Clostridium ramosum by CLSI M11-A6 agar dilution method; type: functional
Clostridium bartlettii = experiment: Antibacterial activity against Clostridium bartlettii by CLSI M11-A6 agar dilution method; type: functional; details: Intestinibacter bartlettii
[1] = system: Paraclostridium bifermentans; experiment: Antibacterial activity against Clostridium bifermentans by CLSI M11-A6 agar dilution method; type: functional
Clostridium butyricum = experiment: Antibacterial activity against Clostridium butyricum by CLSI M11-A6 agar dilution method; type: functional
Clostridium disporicum = experiment: Antibacterial activity against Clostridium disporicum by CLSI M11-A6 agar dilution method; type: functional
Clostridium glycolicum = experiment: Antibacterial activity against Clostridium glycolicum by CLSI M11-A6 agar dilution method; type: functional; details: Terrisporobacter glycolicus
Clostridium = experiment: Antibacterial activity against Clostridium hypermegas by CLSI M11-A6 agar dilution method; type: functional
Flavonifractor plautii = experiment: Antibacterial activity against Clostridium orbiscindens by CLSI M11-A6 agar dilution method; type: functional
[2] = system: Clostridium paraputrificum; experiment: Antibacterial activity against Clostridium paraputrificum by CLSI M11-A6 agar dilution method; type: functional
Clostridium scindens = experiment: Antibacterial activity against Clostridium scindens by CLSI M11-A6 agar dilution method; type: functional
Clostridium spiroforme = experiment: Antibacterial activity against Clostridium spiroforme by CLSI M11-A6 agar dilution method; type: functional; details: Thomasclavelia spiroformis
Clostridium tertium = experiment: Antibacterial activity against Clostridium tertium by CLSI M11-A6 agar dilution method; type: functional
Actinomyces naeslundii = experiment: Antibacterial activity against Actinomyces naeslundii by CLSI M11-A6 agar dilution method; type: functional
[3] = system: Bifidobacterium adolescentis; experiment: Antibacterial activity against Bifidobacterium adolescentis by CLSI M11-A6 agar dilution method; type: functional
Bifidobacterium breve = experiment: Antibacterial activity against Bifidobacterium breve by CLSI M11-A6 agar dilution method; type: functional
[4] = Antibacterial activity against Bifidobacterium infantis by CLSI M11-A6 agar dilution method; type: functional, Bifidobacterium longum subsp. infantis; details: Bifidobacterium longum
Bifidobacterium longum = experiment: Antibacterial activity against Bifidobacterium longum by CLSI M11-A6 agar dilution method; type: functional
[5] = system: Catenibacterium mitsuokai; experiment: Antibacterial activity against Catenibacterium mitsuokai by CLSI M11-A6 agar dilution method; type: functional
Collinsella aerofaciens = experiment: Antibacterial activity against Colinsella aerofaciens by CLSI M11-A6 agar dilution method; type: functional
Holdemania filiformis = experiment: Antibacterial activity against Holdemania filiformis by CLSI M11-A6 agar dilution method; type: functional
[6] = system: Ruminococcus flavefaciens; experiment: Antibacterial activity against Ruminococcus flavefaciens by CLSI M11-A6 agar dilution method; type: functional
Ruminococcus sp. = experiment: Antibacterial activity against Ruminococcus sp. by CLSI M11-A6 agar dilution method; type: functional
Anaerococcus prevotii = experiment: Antibacterial activity against Anaerococcus prevotii by CLSI M11-A6 agar dilution method; type: functional
Anaerococcus tetradius = experiment: Antibacterial activity against Anaerococcus tetradius by CLSI M11-A6 agar dilution method; type: functional
[7] = system: Streptococcus constellatus; experiment: Antibacterial activity against Streptococcus constellatus by CLSI M11-A6 agar dilution method; type: functional
[8] = system: Streptococcus intermedius; experiment: Antibacterial activity against Streptococcus intermedius by CLSI M11-A6 agar dilution method; type: functional
Bacteroides fragilis = experiment: Antibacterial activity against Bacteroides fragilis by CLSI M11-A6 agar dilution method; type: functional
Phocaeicola vulgatus = experiment: Antibacterial activity against Bacteroides vulgatus by CLSI M11-A6 agar dilution method; type: functional
Odoribacter splanchnicus = experiment: Antibacterial activity against Bacteroides splanchnicus by CLSI M11-A6 agar dilution method; type: functional
Fusobacterium mortiferum = experiment: Antibacterial activity against Fusobacterium mortiferum by CLSI M11-A6 agar dilution method; type: functional
Fusobacterium varium = experiment: Antibacterial activity against Fusobacterium varium by CLSI M11-A6 agar dilution method; type: functional
Prevotella buccae = experiment: Antibacterial activity against Prevotella buccae by CLSI M11-A6 agar dilution method; type: functional; details: Segatella buccae
Prevotella denticola = experiment: Antibacterial activity against Prevotella P denticola by CLSI M11-A6 agar dilution method; type: functional
Prevotella disiens = experiment: Antibacterial activity against Prevotella P disiens by CLSI M11-A6 agar dilution method; type: functional
Prevotella intermedia [9] = experiment: Antibacterial activity against Prevotella P intermedia by CLSI M11-A6 agar dilution method; type: functional
Prevotella intermedia [10] = experiment: Antibacterial activity against Prevotella intermedia by CLSI M11-A6 agar dilution method; type: functional
[11] = system: Prevotella melaninogenica; experiment: Antibacterial activity against Prevotella melaninogenica by CLSI M11-A6 agar dilution method; type: functional

CCCCCCCCCCNCCN[C@@]1(C)C[C@H](O[C@H]2[C@H](Oc3c4cc5cc3Oc3ccc(cc3Cl)[C@@H](O)[C@@H](NC(=O)[C@@H](CC(C)C)NC)C(=O)N[C@@H](CC(N)=O)C(=O)N[C@H]5C(=O)N[C@H]3C(=O)N[C@H](C(=O)N[C@H](C(=O)O)c5cc(O)c(CNCP(=O)(O)O)c(O)c5-c5cc3ccc5O)[C@H](O)c3ccc(c(Cl)c3)O4)O[C@H](CO)[C@@H](O)[C@@H]2O)O[C@@H](C)[C@H]1O [TELAVANCIN]
MIC50 ([Clostridium] innocuum): 2 mg/L (≈ 1.14 µM)
MIC90 ([Clostridium] innocuum): 2 mg/L (≈ 1.14 µM)
MIC50 (Clostridium perfringens): ≤ 0.12 mg/L
MIC90 (Clostridium perfringens): 0.25 mg/L (≈ 0.142 µM)
MIC (Thomasclavelia ramosa): 0.25 mg/L (≈ 0.142 µM)
MIC50 (Thomasclavelia ramosa): 0.25 mg/L (≈ 0.142 µM)
MIC90 (Thomasclavelia ramosa): 0.25 mg/L (≈ 0.142 µM)
MIC50 (Clostridium bartlettii): ≤ 0.12 mg/L
MIC90 (Clostridium bartlettii): 0.25 mg/L (≈ 0.142 µM)
MIC50 [1]: ≤ 0.12 mg/L
MIC90 [1]: 0.25 mg/L (≈ 0.142 µM)
MIC50 (Clostridium butyricum): ≤ 0.12 mg/L
MIC90 (Clostridium butyricum): 0.25 mg/L (≈ 0.142 µM)
MIC50 (Clostridium disporicum): ≤ 0.12 mg/L
MIC90 (Clostridium disporicum): 0.25 mg/L (≈ 0.142 µM)
MIC50 (Clostridium glycolicum): ≤ 0.12 mg/L
MIC90 (Clostridium glycolicum): 0.25 mg/L (≈ 0.142 µM)
MIC50 (Clostridium): ≤ 0.12 mg/L
MIC90 (Clostridium): 0.25 mg/L (≈ 0.142 µM)
MIC50 (Flavonifractor plautii): ≤ 0.12 mg/L
MIC90 (Flavonifractor plautii): 0.25 mg/L (≈ 0.142 µM)
MIC50 [2]: ≤ 0.12 mg/L
MIC90 [2]: 0.25 mg/L (≈ 0.142 µM)
MIC50 (Clostridium scindens): ≤ 0.12 mg/L
MIC90 (Clostridium scindens): 0.25 mg/L (≈ 0.142 µM)
MIC50 (Clostridium spiroforme): ≤ 0.12 mg/L
MIC90 (Clostridium spiroforme): 0.25 mg/L (≈ 0.142 µM)
MIC50 (Clostridium tertium): ≤ 0.12 mg/L
MIC90 (Clostridium tertium): 0.25 mg/L (≈ 0.142 µM)
MIC50 (Actinomyces naeslundii): ≤ 0.12 mg/L
MIC90 (Actinomyces naeslundii): 0.5 mg/L (≈ 0.285 µM)
MIC50 [3]: ≤ 0.12 mg/L
MIC90 [3]: 0.5 mg/L (≈ 0.285 µM)
MIC50 (Bifidobacterium breve): ≤ 0.12 mg/L
MIC90 (Bifidobacterium breve): 0.5 mg/L (≈ 0.285 µM)
MIC50 [4]: ≤ 0.12 mg/L
MIC90 [4]: 0.5 mg/L (≈ 0.285 µM)
MIC50 (Bifidobacterium longum): ≤ 0.12 mg/L
MIC90 (Bifidobacterium longum): 0.5 mg/L (≈ 0.285 µM)
MIC50 [5]: ≤ 0.12 mg/L
MIC90 [5]: 0.5 mg/L (≈ 0.285 µM)
MIC50 (Collinsella aerofaciens): ≤ 0.12 mg/L
MIC90 (Collinsella aerofaciens): 0.5 mg/L (≈ 0.285 µM)
MIC50 (Holdemania filiformis): ≤ 0.12 mg/L
MIC90 (Holdemania filiformis): 0.5 mg/L (≈ 0.285 µM)
MIC50 [6]: ≤ 0.12 mg/L
MIC90 [6]: ≤ 0.12 mg/L
MIC50 (Ruminococcus sp.): ≤ 0.12 mg/L
MIC90 (Ruminococcus sp.): 0.25 mg/L (≈ 0.142 µM)
MIC50 (Anaerococcus prevotii): ≤ 0.12 mg/L
MIC90 (Anaerococcus prevotii): 0.25 mg/L (≈ 0.142 µM)
MIC50 (Anaerococcus tetradius): ≤ 0.12 mg/L
MIC90 (Anaerococcus tetradius): 0.25 mg/L (≈ 0.142 µM)
MIC50 [7]: ≤ 0.12 mg/L
MIC90 [7]: ≤ 0.12 mg/L
MIC50 [8]: ≤ 0.12 mg/L
MIC90 [8]: ≤ 0.12 mg/L
MIC (Bacteroides fragilis): > 64 mg/L
MIC50 (Bacteroides fragilis): > 64 mg/L
MIC90 (Bacteroides fragilis): > 64 mg/L
MIC (Phocaeicola vulgatus): > 64 mg/L
MIC50 (Phocaeicola vulgatus): > 64 mg/L
MIC90 (Phocaeicola vulgatus): > 64 mg/L
MIC50 (Odoribacter splanchnicus): > 64 mg/L
MIC90 (Odoribacter splanchnicus): > 64 mg/L
MIC50 (Fusobacterium mortiferum): > 64 mg/L
MIC90 (Fusobacterium mortiferum): > 64 mg/L
MIC50 (Fusobacterium varium): > 64 mg/L
MIC90 (Fusobacterium varium): > 64 mg/L
MIC50 (Prevotella buccae): 8 mg/L (≈ 4.56 µM)
MIC90 (Prevotella buccae): 64 mg/L (≈ 36.5 µM)
MIC50 (Prevotella denticola): 8 mg/L (≈ 4.56 µM)
MIC90 (Prevotella denticola): 64 mg/L (≈ 36.5 µM)
MIC50 (Prevotella disiens): 8 mg/L (≈ 4.56 µM)
MIC90 (Prevotella disiens): 64 mg/L (≈ 36.5 µM)
MIC50 (Prevotella intermedia [9]): 8 mg/L (≈ 4.56 µM)
MIC90 (Prevotella intermedia [9]): 64 mg/L (≈ 36.5 µM)
MIC50 (Prevotella intermedia [10]): 8 mg/L (≈ 4.56 µM)
MIC90 (Prevotella intermedia [10]): 64 mg/L (≈ 36.5 µM)
MIC50 [11]: 8 mg/L (≈ 4.56 µM)
MIC90 [11]: 64 mg/L (≈ 36.5 µM)

From ChEMBL document CHEMBL1671662, “In vitro activities of telavancin and six comparator agents against anaerobic bacterial isolates” (2009)
